For test [1], the target named is 5-hydroxytryptamine receptor 2A (Rattus norvegicus, UniProt P14842). Nature of the test: Displacement of [3H]-ketanserin from rat 5-HT2A expressed in mouse NIH/3T3 cells assessed as inhibition constant by Cheng-Prusoff equation analysis. The class given is cell-based.
Test [2] addresses Amyloid-beta precursor protein (Homo sapiens) (UniProt P05067). Nature of the test: Inhibition of amyloid beta (unknown origin) aggregation at 25 uM relative to control.
The target of test [3] is cGMP-specific 3',5'-cyclic phosphodiesterase (Homo sapiens, UniProt O76074). Nature of the test: Inhibition of PDE5 (unknown origin).
Another test has as its target Histone deacetylase 1 (Homo sapiens, UniProt Q13547). Kind of test: Inhibition of HDAC1 (unknown origin).
In test [4] the target is T1, Protein deacetylase HDAC6 (Homo sapiens, UniProt Q9UBN7).
T1 sequence (Q9UBN7 whole entry): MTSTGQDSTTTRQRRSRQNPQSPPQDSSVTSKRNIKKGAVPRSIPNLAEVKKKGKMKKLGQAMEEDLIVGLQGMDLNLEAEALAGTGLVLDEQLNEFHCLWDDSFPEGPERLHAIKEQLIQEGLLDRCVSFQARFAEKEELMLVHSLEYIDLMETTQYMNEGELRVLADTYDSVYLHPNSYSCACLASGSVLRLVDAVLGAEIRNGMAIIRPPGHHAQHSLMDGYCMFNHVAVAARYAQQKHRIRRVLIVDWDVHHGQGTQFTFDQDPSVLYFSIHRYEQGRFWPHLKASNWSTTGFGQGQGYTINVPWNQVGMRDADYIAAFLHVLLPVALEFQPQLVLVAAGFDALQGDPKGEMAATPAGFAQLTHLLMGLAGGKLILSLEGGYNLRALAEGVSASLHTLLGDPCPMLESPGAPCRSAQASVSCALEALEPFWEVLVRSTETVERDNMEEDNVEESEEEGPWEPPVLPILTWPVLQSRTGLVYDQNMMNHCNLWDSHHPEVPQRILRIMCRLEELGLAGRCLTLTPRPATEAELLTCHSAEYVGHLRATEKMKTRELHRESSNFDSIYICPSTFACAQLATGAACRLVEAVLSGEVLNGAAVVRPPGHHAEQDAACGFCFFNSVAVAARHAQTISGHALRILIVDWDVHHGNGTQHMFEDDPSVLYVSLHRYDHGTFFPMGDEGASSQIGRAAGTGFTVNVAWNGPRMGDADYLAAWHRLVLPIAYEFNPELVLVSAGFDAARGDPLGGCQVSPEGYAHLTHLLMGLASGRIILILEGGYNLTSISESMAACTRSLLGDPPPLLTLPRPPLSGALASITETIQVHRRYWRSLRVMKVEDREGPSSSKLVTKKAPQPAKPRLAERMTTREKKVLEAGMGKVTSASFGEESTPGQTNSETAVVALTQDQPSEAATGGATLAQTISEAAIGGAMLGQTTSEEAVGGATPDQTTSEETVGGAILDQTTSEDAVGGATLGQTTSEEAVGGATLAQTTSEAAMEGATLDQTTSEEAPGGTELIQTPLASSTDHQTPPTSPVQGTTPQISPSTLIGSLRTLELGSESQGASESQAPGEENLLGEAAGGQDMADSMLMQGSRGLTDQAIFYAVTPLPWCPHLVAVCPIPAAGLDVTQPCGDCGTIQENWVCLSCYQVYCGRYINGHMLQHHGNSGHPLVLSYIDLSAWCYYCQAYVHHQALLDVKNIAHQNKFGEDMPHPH
Kind of test: Inhibition of HDAC6 (unknown origin).

Test [5] addresses T2, Amine oxidase [flavin-containing] B (Homo sapiens, UniProt P27338).
T2 sequence (P27338 whole entry): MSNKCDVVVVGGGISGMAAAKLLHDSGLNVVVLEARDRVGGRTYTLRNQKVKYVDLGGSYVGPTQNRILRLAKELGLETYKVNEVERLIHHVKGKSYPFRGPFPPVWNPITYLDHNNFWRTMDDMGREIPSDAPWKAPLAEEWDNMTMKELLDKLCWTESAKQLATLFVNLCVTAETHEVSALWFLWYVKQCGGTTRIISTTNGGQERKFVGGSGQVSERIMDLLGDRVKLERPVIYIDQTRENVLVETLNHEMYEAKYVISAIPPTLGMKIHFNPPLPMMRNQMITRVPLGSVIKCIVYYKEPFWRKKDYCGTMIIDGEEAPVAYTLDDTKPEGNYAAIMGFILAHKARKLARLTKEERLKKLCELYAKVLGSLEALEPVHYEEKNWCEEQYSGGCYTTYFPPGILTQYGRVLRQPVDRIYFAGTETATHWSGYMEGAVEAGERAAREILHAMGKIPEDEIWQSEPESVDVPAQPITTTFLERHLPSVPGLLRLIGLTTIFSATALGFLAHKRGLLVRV
Nature of the test: Inhibition of MAO-B (unknown origin).

The target in test [6] is T3, Amine oxidase [flavin-containing] A (Homo sapiens, UniProt P21397).
T3 sequence (P21397 whole entry): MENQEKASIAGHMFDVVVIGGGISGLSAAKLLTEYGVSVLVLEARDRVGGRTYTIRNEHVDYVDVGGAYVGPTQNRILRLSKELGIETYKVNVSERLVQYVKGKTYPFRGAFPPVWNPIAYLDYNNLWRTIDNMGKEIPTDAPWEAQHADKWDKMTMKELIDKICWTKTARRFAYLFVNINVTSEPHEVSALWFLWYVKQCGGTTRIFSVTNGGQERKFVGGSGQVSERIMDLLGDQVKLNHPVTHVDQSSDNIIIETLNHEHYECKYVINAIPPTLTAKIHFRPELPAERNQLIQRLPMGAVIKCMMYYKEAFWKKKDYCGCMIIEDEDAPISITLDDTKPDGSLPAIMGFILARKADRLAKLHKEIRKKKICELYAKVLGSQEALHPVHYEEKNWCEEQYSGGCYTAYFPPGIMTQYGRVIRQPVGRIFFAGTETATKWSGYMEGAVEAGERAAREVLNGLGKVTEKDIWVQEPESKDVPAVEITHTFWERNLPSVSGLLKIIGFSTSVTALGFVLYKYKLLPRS
Kind of test: Inhibition of MAO-A (unknown origin).

The target in another test is Acetylcholinesterase (Homo sapiens, UniProt P22303). Nature of the test: Inhibition of AChE (unknown origin).
Another test concerns the target Cholinesterase (Homo sapiens, UniProt P06276). Nature of the test: Inhibition of BuChE (unknown origin).
Test [7] in a line: Inhibition of NMDA receptor (unknown origin). Set-up: species or system Homo sapiens.
Test [8] concerns the target T3, Amine oxidase [flavin-containing] A. Nature of the test: Binding affinity to MAO-A (unknown origin) assessed as inhibition constant.
Test [9] addresses 5-hydroxytryptamine receptor 2B (Rattus norvegicus, UniProt P30994). Kind of test: Displacement of [3H]-ketanserin from rat 5-HT2B expressed in mouse NIH/3T3 cells assessed as inhibition constant by Cheng-Prusoff equation analysis. The class given is cell-based.
Test [10] deals with 5-hydroxytryptamine receptor 2B (Homo sapiens, UniProt P41595). Nature of the test: Binding affinity to 5-HT2B (unknown origin) assessed as equilibrium binding constant.
Test [11] concerns the target Dual specificity tyrosine-phosphorylation-regulated kinase 1A (Homo sapiens, UniProt Q13627). Kind of test: Inhibition of DYRK1A (unknown origin).
Test [12] concerns the target GABA-A receptor; anion channel. Kind of test: Displacement of [3H]flunitrazepam from GABAA (unknown origin ) receptor by radioligand binding assay. It is filed as protein-complex assay, Homo sapiens.
The target in test [13] is Glycogen synthase kinase-3 beta (Homo sapiens, UniProt P49841). Kind of test: Inhibition of GSK-3beta (unknown origin).
A further test concerns the target Histone deacetylase. Nature of the test: Inhibition of HDAC (unknown origin). It is filed as protein assay, Homo sapiens.
The target of test [14] is 5-hydroxytryptamine receptor 2A (Homo sapiens, UniProt P28223). Kind of test: Displacement of [3H]-LSD from human 5-HT2A expressed in human HEK cells assessed as inhibition constant by FLIPR assay. It is filed as cell-based.
For test [15], the target named is T4, 5-hydroxytryptamine receptor 3A (Homo sapiens, UniProt P46098).
T4 sequence (P46098 whole entry): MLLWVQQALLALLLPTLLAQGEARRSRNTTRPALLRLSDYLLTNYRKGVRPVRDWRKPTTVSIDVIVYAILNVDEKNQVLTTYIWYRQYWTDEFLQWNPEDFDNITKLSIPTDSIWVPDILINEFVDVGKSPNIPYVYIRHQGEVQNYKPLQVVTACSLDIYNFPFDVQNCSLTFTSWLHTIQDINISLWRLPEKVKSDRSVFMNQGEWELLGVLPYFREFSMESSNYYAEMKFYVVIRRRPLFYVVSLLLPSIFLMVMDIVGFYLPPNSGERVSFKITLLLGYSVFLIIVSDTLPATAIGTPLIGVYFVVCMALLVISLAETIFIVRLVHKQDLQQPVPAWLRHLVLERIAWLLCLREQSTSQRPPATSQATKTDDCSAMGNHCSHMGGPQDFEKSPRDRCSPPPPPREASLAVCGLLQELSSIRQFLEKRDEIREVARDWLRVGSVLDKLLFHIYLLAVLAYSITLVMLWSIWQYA
Nature of the test: Binding affinity to 5-HT3R (unknown origin) assessed as inhibition constant.

Test [16] has as its target 5-hydroxytryptamine receptor 5A (Homo sapiens, UniProt P47898). Nature of the test: Binding affinity to 5-HT5AR (unknown origin) assessed as inhibition constant.

The values below come from ChEMBL document CHEMBL5233266, “β-Carboline as a Privileged Scaffold for Multitarget Strategies in Alzheimer's Disease Therapy” (J Med Chem, 2021).

Values joined by “and” are separate entries in the source; they are usually repeats but may differ in a detail not shown here. Identical values can stand only once.

Chain of 5-hydroxytryptamine receptor 2A (Rattus norvegicus, UniProt P14842) (P14842 whole entry): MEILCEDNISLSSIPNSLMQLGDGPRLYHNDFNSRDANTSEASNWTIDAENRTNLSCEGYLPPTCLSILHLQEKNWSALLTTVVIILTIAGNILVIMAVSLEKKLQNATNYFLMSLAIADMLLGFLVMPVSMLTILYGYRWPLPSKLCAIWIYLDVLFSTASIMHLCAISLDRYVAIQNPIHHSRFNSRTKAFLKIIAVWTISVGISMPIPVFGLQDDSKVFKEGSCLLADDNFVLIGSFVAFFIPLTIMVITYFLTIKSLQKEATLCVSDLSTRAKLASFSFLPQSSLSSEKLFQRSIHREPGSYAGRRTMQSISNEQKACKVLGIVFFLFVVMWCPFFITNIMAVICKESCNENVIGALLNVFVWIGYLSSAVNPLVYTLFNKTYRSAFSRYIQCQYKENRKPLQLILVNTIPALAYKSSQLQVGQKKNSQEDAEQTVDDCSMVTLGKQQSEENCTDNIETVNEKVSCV
Chain of Cholinesterase (P06276 whole entry): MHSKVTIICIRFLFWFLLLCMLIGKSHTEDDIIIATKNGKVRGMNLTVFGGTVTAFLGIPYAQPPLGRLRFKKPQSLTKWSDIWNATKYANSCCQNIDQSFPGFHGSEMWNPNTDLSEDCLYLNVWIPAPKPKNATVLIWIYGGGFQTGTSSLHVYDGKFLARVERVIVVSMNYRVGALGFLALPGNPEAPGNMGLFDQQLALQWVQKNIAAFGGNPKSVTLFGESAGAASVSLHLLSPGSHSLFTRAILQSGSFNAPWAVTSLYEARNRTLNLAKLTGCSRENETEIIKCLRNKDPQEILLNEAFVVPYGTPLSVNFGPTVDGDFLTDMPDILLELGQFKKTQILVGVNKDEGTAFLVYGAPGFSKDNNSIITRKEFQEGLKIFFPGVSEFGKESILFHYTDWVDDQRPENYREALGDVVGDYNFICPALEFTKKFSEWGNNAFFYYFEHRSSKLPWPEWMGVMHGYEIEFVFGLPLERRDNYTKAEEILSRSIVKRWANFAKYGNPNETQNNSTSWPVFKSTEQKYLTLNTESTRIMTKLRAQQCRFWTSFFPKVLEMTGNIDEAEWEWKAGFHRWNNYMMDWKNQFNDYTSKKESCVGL
Chain of Acetylcholinesterase (P22303 whole entry): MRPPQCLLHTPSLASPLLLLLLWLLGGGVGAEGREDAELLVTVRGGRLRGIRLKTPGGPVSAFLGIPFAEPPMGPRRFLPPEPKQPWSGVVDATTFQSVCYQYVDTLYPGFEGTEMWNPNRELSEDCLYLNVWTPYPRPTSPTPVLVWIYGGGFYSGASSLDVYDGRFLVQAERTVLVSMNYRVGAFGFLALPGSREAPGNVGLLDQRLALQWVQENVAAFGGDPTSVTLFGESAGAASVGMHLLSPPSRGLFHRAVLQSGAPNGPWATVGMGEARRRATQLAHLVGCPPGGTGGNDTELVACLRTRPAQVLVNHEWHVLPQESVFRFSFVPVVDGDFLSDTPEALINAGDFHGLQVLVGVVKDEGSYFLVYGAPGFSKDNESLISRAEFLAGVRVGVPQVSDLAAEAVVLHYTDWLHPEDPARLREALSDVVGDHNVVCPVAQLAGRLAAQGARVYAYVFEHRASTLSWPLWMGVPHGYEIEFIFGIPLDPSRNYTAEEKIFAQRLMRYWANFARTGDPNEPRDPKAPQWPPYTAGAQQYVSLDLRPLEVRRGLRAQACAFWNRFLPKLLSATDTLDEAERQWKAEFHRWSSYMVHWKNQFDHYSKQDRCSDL
Chain of Amyloid-beta precursor protein (Homo sapiens) (P05067 whole entry): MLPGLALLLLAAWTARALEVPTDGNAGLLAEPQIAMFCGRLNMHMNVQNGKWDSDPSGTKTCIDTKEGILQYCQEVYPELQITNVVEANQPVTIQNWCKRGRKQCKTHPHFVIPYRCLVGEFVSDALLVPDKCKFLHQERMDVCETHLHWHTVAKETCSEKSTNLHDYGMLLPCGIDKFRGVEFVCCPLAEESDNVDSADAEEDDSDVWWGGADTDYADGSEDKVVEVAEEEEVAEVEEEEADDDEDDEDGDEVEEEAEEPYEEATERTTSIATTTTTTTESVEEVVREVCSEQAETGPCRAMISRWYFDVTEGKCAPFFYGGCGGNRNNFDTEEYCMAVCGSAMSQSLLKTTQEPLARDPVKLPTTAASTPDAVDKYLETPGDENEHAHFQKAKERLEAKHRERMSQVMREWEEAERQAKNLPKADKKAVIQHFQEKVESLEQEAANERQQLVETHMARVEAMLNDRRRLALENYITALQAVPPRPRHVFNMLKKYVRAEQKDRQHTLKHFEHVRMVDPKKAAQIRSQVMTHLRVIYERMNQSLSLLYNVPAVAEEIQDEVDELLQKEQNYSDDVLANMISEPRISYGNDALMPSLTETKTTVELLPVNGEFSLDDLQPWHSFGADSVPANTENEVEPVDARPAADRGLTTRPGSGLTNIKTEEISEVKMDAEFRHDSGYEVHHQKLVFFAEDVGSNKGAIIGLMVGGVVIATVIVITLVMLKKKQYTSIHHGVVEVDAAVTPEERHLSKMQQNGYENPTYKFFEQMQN
Chain of 5-hydroxytryptamine receptor 2B (Homo sapiens, UniProt P41595) (P41595 whole entry): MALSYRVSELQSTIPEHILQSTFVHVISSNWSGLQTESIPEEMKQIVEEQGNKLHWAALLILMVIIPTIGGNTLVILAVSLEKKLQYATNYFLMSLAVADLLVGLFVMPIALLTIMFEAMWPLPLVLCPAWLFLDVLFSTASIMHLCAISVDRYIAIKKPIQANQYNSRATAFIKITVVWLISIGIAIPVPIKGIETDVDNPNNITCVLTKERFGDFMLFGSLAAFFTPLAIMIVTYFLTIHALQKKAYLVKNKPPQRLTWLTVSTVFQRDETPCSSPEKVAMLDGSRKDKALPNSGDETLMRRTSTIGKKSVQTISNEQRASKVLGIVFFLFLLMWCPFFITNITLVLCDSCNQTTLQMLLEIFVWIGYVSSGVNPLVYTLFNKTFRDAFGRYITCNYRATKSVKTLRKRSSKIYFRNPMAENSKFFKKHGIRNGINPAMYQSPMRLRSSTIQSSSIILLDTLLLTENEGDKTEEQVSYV
Chain of 5-hydroxytryptamine receptor 5A (P47898 whole entry): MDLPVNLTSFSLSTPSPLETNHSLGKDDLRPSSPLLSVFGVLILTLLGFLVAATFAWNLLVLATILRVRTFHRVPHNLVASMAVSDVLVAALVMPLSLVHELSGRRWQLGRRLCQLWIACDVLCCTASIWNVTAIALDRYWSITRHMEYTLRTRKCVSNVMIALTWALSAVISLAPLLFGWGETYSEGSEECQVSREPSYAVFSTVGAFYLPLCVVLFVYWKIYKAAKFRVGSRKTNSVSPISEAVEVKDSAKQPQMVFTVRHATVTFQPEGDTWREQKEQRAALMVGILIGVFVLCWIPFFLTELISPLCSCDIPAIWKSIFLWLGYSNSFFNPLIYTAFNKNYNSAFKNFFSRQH
Chain of Glycogen synthase kinase-3 beta (P49841 whole entry): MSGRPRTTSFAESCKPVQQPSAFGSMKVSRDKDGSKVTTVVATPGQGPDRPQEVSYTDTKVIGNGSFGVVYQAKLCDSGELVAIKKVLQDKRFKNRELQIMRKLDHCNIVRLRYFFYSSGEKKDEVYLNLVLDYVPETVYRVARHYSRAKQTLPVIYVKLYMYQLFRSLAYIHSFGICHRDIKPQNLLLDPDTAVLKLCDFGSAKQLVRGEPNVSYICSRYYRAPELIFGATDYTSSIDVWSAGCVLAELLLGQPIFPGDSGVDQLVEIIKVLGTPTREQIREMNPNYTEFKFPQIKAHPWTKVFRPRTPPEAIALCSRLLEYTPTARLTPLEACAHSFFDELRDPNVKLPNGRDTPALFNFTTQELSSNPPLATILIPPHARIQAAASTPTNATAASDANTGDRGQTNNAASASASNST
Chain of 5-hydroxytryptamine receptor 2A (Homo sapiens, UniProt P28223) (P28223 whole entry): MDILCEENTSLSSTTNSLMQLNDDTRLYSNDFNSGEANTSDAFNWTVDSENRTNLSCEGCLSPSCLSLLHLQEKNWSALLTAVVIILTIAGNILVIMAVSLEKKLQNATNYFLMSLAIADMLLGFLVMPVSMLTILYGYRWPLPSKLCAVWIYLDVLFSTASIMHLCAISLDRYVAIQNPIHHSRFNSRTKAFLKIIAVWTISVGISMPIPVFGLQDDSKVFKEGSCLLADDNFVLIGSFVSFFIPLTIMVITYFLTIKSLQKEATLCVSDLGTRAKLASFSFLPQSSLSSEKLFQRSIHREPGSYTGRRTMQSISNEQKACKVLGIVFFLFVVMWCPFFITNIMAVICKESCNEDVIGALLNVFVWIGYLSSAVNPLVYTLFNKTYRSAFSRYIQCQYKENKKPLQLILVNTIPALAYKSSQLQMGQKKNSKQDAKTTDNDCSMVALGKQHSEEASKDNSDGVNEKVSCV
Chain of 5-hydroxytryptamine receptor 2B (Rattus norvegicus, UniProt P30994) (P30994 whole entry): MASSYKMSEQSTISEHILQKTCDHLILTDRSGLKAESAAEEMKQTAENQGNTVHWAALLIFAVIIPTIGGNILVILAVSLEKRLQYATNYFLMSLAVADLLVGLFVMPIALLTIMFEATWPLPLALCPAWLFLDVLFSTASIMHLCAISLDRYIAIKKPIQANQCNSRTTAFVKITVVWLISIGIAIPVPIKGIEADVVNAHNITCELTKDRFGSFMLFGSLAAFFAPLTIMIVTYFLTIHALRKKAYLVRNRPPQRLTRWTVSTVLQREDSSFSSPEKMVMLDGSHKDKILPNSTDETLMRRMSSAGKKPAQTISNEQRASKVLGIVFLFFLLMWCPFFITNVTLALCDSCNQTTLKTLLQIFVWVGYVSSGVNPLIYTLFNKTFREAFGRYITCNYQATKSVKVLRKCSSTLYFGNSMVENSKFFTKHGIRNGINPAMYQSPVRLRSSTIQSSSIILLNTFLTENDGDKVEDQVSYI

With `C=CC(=O)N1CCc2c(n(CCCCN3CCN(c4ccccc4OC)CC3)c3ccccc23)C1`, the Ki in test [1] is 44 nM.
In turn, `CCCc1ccc[n+](CC(=O)Nc2ccc3cc4c5[nH]c6ccccc6c5ccn4c(=O)c3c2)c1` displayed an inhibition in test [2] of 93%.
On to `O=C(NO)c1cnc(N2CCC(CN3CC(=O)N4C(Cc5c([nH]c6ccccc56)C4c4ccc5c(c4)OCO5)C3=O)CC2)nc1` (stereo not drawn), for which the values for the IC50 (in test [3]; against Histone deacetylase 1; in test [4]) were 310 nM, 80 nM and 80 nM, respectively.
In [5], `COC(=O)C1=CN2CCc3c([nH]c4ccccc34)[C@@H]2C[C@H]1C1=CCOC1=O` displayed an IC50 of 34000 nM.
Consider `CCCCn1c2cc(OCc3cn(Cc4ccccc4Cl)nn3)ccc2c2ccnc(C)c21`, for which the figures for the IC50 in [6] and in test [5] were 430 nM and 360 nM, respectively.
On to `C[n+]1ccc2c3ccccc3n(CCc3ccccc3)c2c1`, for which the IC50 against Acetylcholinesterase is 0.5 nM; against Cholinesterase, 5000 nM; in [7] it was 5000 nM.
Turning to `COc1ccc2c3c(n(C)c2c1)C(C)=[N+](C)CC3`, in test [8], the Ki was found to be 140 nM.
For `COc1ccc(CC2NCCc3c2[nH]c2cc(C)c(C)cc32)cc1OC` (stereo not drawn), the Ki was determined as 5 nM in test [1] and 0.2 nM in [9]. In [10], the Kb was < 0.3 nM and 0.08 nM.
On to `Brc1cccc2[nH]c3c(c12)CCNC3`, for which the Ki in test [1] was less than 180 nM.
Take `c1ccc2c(c1)[nH]c1c[n+](CCCCCCCCCCCC[n+]3ccc4c(c3)[nH]c3ccccc34)ccc12`: the results for the IC50 (against Acetylcholinesterase; at Cholinesterase; in test [7]) were 86000 nM, 1800 nM and 1800 nM, respectively.
Turning to `Cc1nccc2c1[nH]c1ccccc12` [HARMAN], the IC50 against Acetylcholinesterase is more than 10000 nM; against Cholinesterase, more than 10000 nM; in [11], more than 1800 nM; in test [6] it was 29 nM; in test [12], 2500 nM.
For `COc1ccc2c3cc[n+](C)c(C)c3n(C)c2c1`, the Ki in [8] is 69 nM and 15 nM.
Compound `Oc1cccc2c1[nH]c1c(C3=C[C@@]4(O)CC/C=C\CCCCN5CCC3[C@]3(C[C@@H]6/C=C\CCCCN6[C@H]34)C5)nccc12` (stereo partly drawn) returned an IC50 in [13] of 4800 nM. In other words, the single-digit micromolar range.
On to `C/C=C(\C=O)[C@@H]1C[C@H]2c3[nH]c4ccccc4c3CCN2C=C1C(=O)OC` [ISOVALLESIACHOTAMINE], for which the IC50 in [6] worked out at 870 nM; in [5], 130000 nM.
As for `O=C(CCCCN1CC(=O)N2[C@H](c3ccc(Br)cc3)c3[nH]c4ccccc4c3C[C@@H]2C1=O)NO`, the IC50 came out at 7 nM in test [3] and 61 nM against Histone deacetylase.
Turning to `COc1ccc2[nH]c3c(c2c1)CCN=C3C`, the inhibition constant (Ki) in [14] is 4200 nM; in [15], more than 10000 nM; in test [16], more than 10000 nM.
On to `O=C(CCCCCCN1CC(=O)N2[C@H](c3ccc(Cl)cc3)c3[nH]c4ccccc4c3C[C@@H]2C1=O)NO`, for which the IC50 turned out to be 126 nM in test [3] and 9.1 nM against Histone deacetylase.
For `O=C(CCCCCN1CC(=O)N2[C@H](c3ccc(Br)cc3)c3[nH]c4ccccc4c3C[C@@H]2C1=O)NO` the same measures were 7 nM and 61 nM.
On to `CCCCc1ccc[n+](CC(=O)Nc2ccc3cc4c5[nH]c6ccccc6c5ccn4c(=O)c3c2)c1`, for which, in test [2], the inhibition worked out at 93%.
